Measurements taken from patent US6998240B2, “Screen for selective inhibitors or activators of Smad protein function” (Wisconsin Alumni Research Foundation, priority 2001, dated 2006).
Residues, ends and D or L forms follow the SMILES beside them.

Experiments:
[1] = target: Phosphorylated Smad2/4 Complex (Homo sapiens, UniProt Q15796); test: 96 well microplate solid phase binding assay of GST-CBP to phosphorylated Smad2/4 complex; set-up: Smad2; 1–467; pBlueBac; His; Smad4; 1–552; Strep; Strep-tag; made in house
Description: Table 7, below, tabulates the results of a 96 well Microplate Format Binding Assay of CBP to Smad2 and Phosphorylated Smad2/4 Complex. Duplicate wells are shown with indicated amounts of Smad protein bound per well. Three different dilutions of biotinylated GST-CBP protein were added per well and incubated at room temperture for 1 hour. Wells were washed 3× with TBS+1% tween and Alkaline phosphatase conjugated strepavidin (Tropix) added. Bound conjugate was detected by addition of the CSPD substrate (Tropix) and relative light units (RLU) measured in a Tropix 717 microplate reader at a read time of 1 second per well.

Smad2-P [2] = target: T1, Smad2-P (Homo sapiens, UniProt Q15796); test: HTRF assay of IC5-GST-CBP binding to phosphorylated Smad2
T1 construct: Smad2; 1–467; pBlueBac; His; made in house; host or cells: Sf9 insect cells (baculovirus), co-infected with virus for membrane-targeted human Alk5 T204D
Text: (§1) To establish HTRF assays for Smad protein interactions, we have used reagents from Wallac-Perkin Elmer and Packard that include Europium-cryptate coupled to α-His epitope tag antibody, α-GST antibody or Streptavidin. As acceptor fluorophores we have used allophycocyanin (Packard's XL665) coupled to Streptavidin or direct labeling of GST-fusion protein with IC5 (Dojindo). Reagents are mixed in a 50 microliter volume in the wells of a 384 Black non-treated microwell plate (Corning) and HTRF detected in a Wallac Victor V multimode plate reader. The reader detects emission at 615 nm from the Europium chelate donor and at 665 nm from the APC or IC5 acceptor. Background, cross-talk and high FRET wells can be indicated on the plate map to allow the machine to compute a normalized value as a ratio Rn=(ET/D) Dmax where ET=A−BI−(C×D). • A—Fluorescence at 665 nm • BI—Blank (buffer only) at 665 nm • D—Fluorescence at 615 nm • C—Cross-talk correction value calculated from wells containing only donor fluorophore • (from “Quench Correction for LANCE TR-FRET” by Perkin-Elmer Wallace)
(§2) Over the past several months we have developed three HTRF assays for Smad binding interactions. All three assays use a Eu-chelate α-His epitope tag antibody as the donor. The antibody recognizes the hexahistidine epitope tag on the Smad proteins produced in the baculovirus expression system described above. As acceptors, we have used Streptavidin conjugated to allophycocyanin (Packard) that binds to biotinylated peptides. The peptides are synthesized to comprise the Smad interaction domain motif from human FAST or c-Jun (FIG. 3). The FAST 24-mer amino acid sequence is based on the homology between FAST, Mixer and Milk reported by Germain and colleagues (Germain, S., et al., supra, 2000). The24-mer C-JUN sequence is based on studies using deletions and gene fragments to define the Smad interaction motif (Zhang, Y., et al., supra, 1998; Liberati, N. T. et al., Proc. Natl. Acad. Sci. USA 96:4844–9, 1999). We also have developed an HTRF assay using IC5-GST-CBP, a fusion protein comprising the Smad interaction domain motif from CBP (a generous gift of Dr. Yigong Shi, Princeton University).
(§3) The assays are done in a 50 μl volume in the well of a 384-well plate. The assay buffer, as recommended by Packard for their HTRF reagents is 50 mM K-Hepes pH 7.0, 400 mM KF and 0.1% BSA. The high concentration of KF is recommended for the Eu(K) reagents from Packard. […] We have also optimized through many titrations the amount of Smad protein (220 ng/well, ˜4 pmoles per well of monomer), the concentration of biotinylated peptide (1 uMolar for FAST and C-JUN), the amount of Eu-anti-His tag antibody (36 ng/well) and the amount of Streptactin-APC (0.5 μg/well).
Table 5 contains data from using the GST-CBP fusion protein that is covalently coupled to the IC5 fluorophore acceptor through the cysteines in the GST portion of the fusion protein. There is no biotinylated peptide or Streptavidin-APC in these assays. […] The lower FRET counts could be due to larger distances between the donor and acceptor molecules in the complex. This might be overcome by using direct labeling of the Smad-P complex with Eu-cryptates rather than the Eu-labeled anti-His tag antibody.

Smad2-P [3] = target: T1, Smad2-P; test: HTRF assay of biotin-FAST peptide binding to Smad2-P (competition)
Text: as §1, §2, §3
We used the FAST-SmadP HTRF assay described above. […] After 1 hr at room temperature, Streptavidin-APC was added to each well and 30 minutes later the fluorescence emissions at 615 nm and 665 nm were read in a PE-Wallac Victor V.

CBP bound by Smad-P complexes relative to an equivalent amount of unphosphorylated Smad [1]: > 30 fold
competition for binding with the GST-CBP fusion protein (in words) (Smad2-P [2]): can compete
Average Normalized Counts (Smad2-P [2]; 50 μM inhibitor peptide, IC5-GST-CBP binding to Smad2-P): 587
remaining activity at 50 µM (Smad2-P [2]; 50 μM inhibitor peptide, IC5-GST-CBP binding to Smad2-P, read-out: Percent of Control (minus background)): 70%
Average Normalized Counts (Smad2-P [2]; 100 μM inhibitor peptide, IC5-GST-CBP binding to Smad2-P): 478
remaining activity at 100 µM (Smad2-P [2]; 100 μM inhibitor peptide, IC5-GST-CBP binding to Smad2-P, read-out: Percent of Control (minus background)): 51%
IC50 (Smad2-P [2]; read-out: concentration of peptide for 50% inhibition of GST-CBP binding): 100 µM
competition for Biotin-FAST binding to Smad-2P (in words) (Smad2-P [3]): inability
Compound: CC[C@H](C)[C@H](NC(=O)[C@H](CC(N)=O)NC(=O)[C@@H](NC(=O)[C@H](CCCNC(=N)N)NC(=O)[C@H](Cc1ccc(O)cc1)NC(=O)[C@H](CC(C)C)NC(=O)[C@H](Cc1c[nH]cn1)NC(=O)[C@H](CCC(N)=O)NC(=O)[C@H](CCC(N)=O)NC(=O)[C@H](CCC(N)=O)NC(=O)[C@H](CCC(N)=O)NC(=O)[C@H](C)NC(=O)[C@H](CCC(=O)O)NC(=O)[C@H](CCCNC(=N)N)NC(=O)[C@H](CCC(=O)O)NC(=O)[C@@H](NC(=O)[C@H](CCC(N)=O)NC(=O)[C@H](CCCNC(=N)N)NC(=O)[C@H](C)NC(=O)[C@H](C)NC(=O)[C@H](CCC(=O)O)NC(=O)[C@@H](NC(=O)[C@H](C)N)C(C)C)[C@@H](C)CC)C(C)C)C(N)=O [CBP] (H-AVEAARQIEREAQQQQHLYRVNI-NH2; N-terminus assumed)
